The values below come from patent publication US9994616B2, “c-Met protein agonist” (The University of Tokyo, priority 2013, dated 2018).

Where two headings read alike, the source gives them in different places. Where a SMILES comes first, the peptide text is derived from it. Bridges are numbered along the chain shown (N, C = ends). [ ]: non-standard residue; d: D form. NMeR = CN[C@@H](CCCNC(=N)N)C(=O)O; NMeF = CN[C@@H](Cc1ccccc1)C(=O)O; NMeT = CN[C@H](C(=O)O)[C@@H](C)O; NMeN = CN[C@@H](CC(N)=O)C(=O)O; NMeC = CN[C@@H](CS)C(=O)O

The target of one data set is c-Met-Fc (Homo sapiens, UniProt P08581). Kind of data set: Binding ability by surface plasmon resonance (SPR, Biacore). The settings on record: for kon: read-out: ka. As for the experimental part: Binding ability of the thioether macrocyclic peptide was evaluated by SPR measurement using Biacore (GE Healthcare).
c-Met-Fc, sequence (P08581 with tags, fused parts or gaps limits assumed): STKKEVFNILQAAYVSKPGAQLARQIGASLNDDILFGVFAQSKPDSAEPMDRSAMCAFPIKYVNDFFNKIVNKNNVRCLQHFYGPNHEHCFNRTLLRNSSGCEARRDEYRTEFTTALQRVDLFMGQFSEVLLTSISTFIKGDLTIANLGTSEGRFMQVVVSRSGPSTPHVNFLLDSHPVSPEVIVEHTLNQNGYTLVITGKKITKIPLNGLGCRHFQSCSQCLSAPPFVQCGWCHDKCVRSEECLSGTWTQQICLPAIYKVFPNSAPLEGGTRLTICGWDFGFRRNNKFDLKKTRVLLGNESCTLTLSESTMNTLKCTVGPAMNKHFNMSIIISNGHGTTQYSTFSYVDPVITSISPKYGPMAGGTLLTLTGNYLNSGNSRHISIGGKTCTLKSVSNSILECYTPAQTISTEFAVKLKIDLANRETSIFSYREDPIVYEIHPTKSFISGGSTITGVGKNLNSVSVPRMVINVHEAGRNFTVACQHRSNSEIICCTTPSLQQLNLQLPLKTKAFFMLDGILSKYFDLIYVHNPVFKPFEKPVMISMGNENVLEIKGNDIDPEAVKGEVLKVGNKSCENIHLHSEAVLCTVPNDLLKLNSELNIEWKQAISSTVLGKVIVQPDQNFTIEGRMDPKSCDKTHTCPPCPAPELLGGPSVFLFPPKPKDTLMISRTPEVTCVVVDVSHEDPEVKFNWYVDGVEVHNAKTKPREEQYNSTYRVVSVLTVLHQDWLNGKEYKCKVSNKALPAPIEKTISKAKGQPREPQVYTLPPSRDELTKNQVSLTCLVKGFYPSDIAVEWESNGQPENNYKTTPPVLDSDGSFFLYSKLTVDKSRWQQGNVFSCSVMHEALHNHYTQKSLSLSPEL
c-Met-Fc, sequence (P08581 25-307 limits assumed): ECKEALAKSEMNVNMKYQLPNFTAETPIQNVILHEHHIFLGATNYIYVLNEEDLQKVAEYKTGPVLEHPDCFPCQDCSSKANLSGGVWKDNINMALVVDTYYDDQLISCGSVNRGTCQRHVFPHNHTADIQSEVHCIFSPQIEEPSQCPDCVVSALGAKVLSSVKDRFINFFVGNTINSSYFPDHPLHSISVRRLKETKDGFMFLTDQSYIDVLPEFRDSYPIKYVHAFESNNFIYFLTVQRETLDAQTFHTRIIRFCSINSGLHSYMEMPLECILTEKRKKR
As a sensor chip, Sensor Chip CM5 was used and an anti-IgG antibody was immobilized on a measurement lane and a control lane by using Human Antibody Capture Kit.
On the measurement lane was immobilized c-Met-Fc, while on the control lane was immobilized Fc protein.
As a running buffer, HBS-EP+ buffer containing 0.1% DMSO was used and a dissociation constant of the thioether macrocyclic peptide was calculated at 5 different concentrations by using the single-kinetics method.
Background: In SPR one partner is held on a chip, and binding of the other changes the refractive index at the surface.

The nature of data set [1]: Stability of thioether macrocyclic peptide in human serum pool (LC-MS). It is filed as in vitro ADME. The settings on record: for remaining at 4 h, 1 μM: Table 9; for remaining at 4 h, 1 μM / remaining at 1 h, 1 μM: human serum pool; for remaining at 4 h, 1 μM / Stability in human serum (undegraded portion/time) / remaining at 1 h, 1 μM: 37° C.; for Stability in human serum (undegraded portion/time): Table 10; for Stability in serum (in words): human serum; for remaining at 1 h, 1 μM: Table 8. As to the method:
A DMSO solution of the thioether macrocyclic peptide to be evaluated was dissolved in a human serum pool to give a concentration of 1 μM. The human serum pool containing the thioether macrocyclic peptide thus prepared was incubated at 37° C.
After an elapse of the evaluation time, the human serum pool containing the thioether macrocyclic peptide was placed on ice and a peptide serving as an internal standard was added and mixed to give a concentration of 1 μM. The resulting mixture was added to a solid-phase extraction column (Hyper Sep SPE column, Thermo Scientific), washed with a 5% aqueous acetonitrile solution containing 0.1% TFA, and then purified by eluting with a 70% aqueous acetonitrile solution containing 0.1% TFA.
The molecular weight of the purified product was analyzed using LC-MS and the cleavage site in the serum was identified. In addition, the thioether macrocyclic peptide which had remained without being cleaved was quantitatively determined by comparing an amount relative to the internal standard at every incubation time.

With `CC(C)C[C@@H]1NC(=O)[C@H](CC(N)=O)NC(=O)[C@H](Cc2c[nH]c3ccccc23)NC(=O)[C@H](C(C)C)NC(=O)[C@H](CCC(=O)O)NC(=O)[C@H](Cc2c[nH]cn2)NC(=O)[C@H]([C@@H](C)O)NC(=O)[C@H](CCCNC(=N)N)NC(=O)[C@H](CCCNC(=N)N)N(C)C(=O)[C@H](CC(N)=O)NC(=O)[C@H](Cc2ccccc2)NC(=O)[C@H](CCC(N)=O)NC(=O)[C@H](CCCNC(=N)N)NC(=O)[C@@H](Cc2ccc(O)cc2)NC(=O)CSC[C@@H](C(=O)NCC(N)=O)N(C)C(=O)[C@H](CC(=O)O)NC1=O` [Peptide D4-3NMe] ({CH2CO}-[dY]RQFN[NMeR]RTHEVWNLD[NMeC]G-NH2; thioether N-16), at c-Met-Fc (Table 9, c-Met-Fc), the Kd was found to be 5.2 nM and the kon was 390000 M⁻¹ s⁻¹. Besides, in data set [1] (4 h), the amount remaining at 4 h, 1 μM is 63% and the “Stability in human serum (undegraded portion/time)” value is recorded as 67%/4 h. The “Stability in serum (in words)” value in data set [1] is “considerably excellent”.

In the case of `CC(C)C[C@@H]1NC(=O)[C@H](CC(N)=O)NC(=O)[C@H](Cc2c[nH]c3ccccc23)NC(=O)[C@H](C(C)C)NC(=O)[C@H](CCC(=O)O)NC(=O)[C@H](Cc2c[nH]cn2)NC(=O)[C@H]([C@@H](C)O)NC(=O)[C@H](CCCNC(=N)N)NC(=O)[C@H](CCCNC(=N)N)NC(=O)[C@H](CC(N)=O)NC(=O)[C@H](Cc2ccccc2)NC(=O)[C@H](CCC(N)=O)NC(=O)[C@H](CCCNC(=N)N)NC(=O)[C@@H](Cc2ccc(O)cc2)NC(=O)CSC[C@@H](C(=O)NCC(N)=O)NC(=O)[C@H](CC(=O)O)NC1=O` [Peptide D4-3] ({CH2CO}-[dY]RQFNRRTHEVWNLDCG-NH2; thioether N-16; N-terminus and C-terminus assumed), the kon at c-Met-Fc (Table 8, c-Met-Fc) was determined as 1.3e+06 M⁻¹ s⁻¹; on c-Met-Fc (Table 10, c-Met-Fc), 2.4e+06 M⁻¹ s⁻¹. In data set [1], this compound had a fraction remaining at 1 h, 1 μM of 3.7%. Moreover, the share remaining at 4 h, 1 μM in data set [1] (4 h) was less than 3.7%. The “Stability in human serum (undegraded portion/time)” value in data set [1] (2 h) came to 6%/2 h.

Take `C[C@@H]1NC(=O)[C@H](Cc2ccc(O)cc2)NC(=O)[C@H](Cc2ccc(O)cc2)NC(=O)[C@H](Cc2c[nH]c3ccccc23)NC(=O)[C@@H](Cc2ccc(O)cc2)NC(=O)CSC[C@@H](C(=O)NCC(N)=O)NC(=O)[C@@H]2CCCN2C(=O)[C@H](Cc2ccccc2)NC(=O)[C@H](C)NC(=O)[C@H](CCCCN)NC(=O)[C@H](Cc2ccc(O)cc2)NC(=O)[C@H]([C@@H](C)O)NC(=O)[C@H](CCC(N)=O)NC(=O)[C@H](CC(=O)O)NC(=O)[C@H](Cc2c[nH]c3ccccc23)NC1=O` [Peptide D5-4] ({CH2CO}-[dY]WYYAWDQTYKAFPCG-NH2; thioether N-15): at c-Met-Fc (Table 10, c-Met-Fc), the Kd stood at 4.6 nM and the kon came to 4.5e+06 M⁻¹ s⁻¹. Further, the “Stability in human serum (undegraded portion/time)” value in data set [1] (2 h) is reported as 97%/2 h.

Consider `CC[C@H](C)[C@@H]1NC(=O)[C@H](Cc2ccc(O)cc2)NC(=O)CSC[C@@H](C(=O)NCC(N)=O)NC(=O)[C@H]([C@@H](C)O)NC(=O)[C@H]([C@@H](C)CC)NC(=O)[C@H](Cc2ccccc2)NC(=O)[C@H](CCCNC(=N)N)NC(=O)[C@H](Cc2c[nH]c3ccccc23)NC(=O)[C@H](CC(N)=O)NC(=O)[C@@H]2CCCN2C(=O)[C@H](CO)NC(=O)[C@H](CC(N)=O)NC(=O)[C@H](Cc2ccccc2)NC(=O)[C@H](CCC(=O)O)NC(=O)[C@H](CC(N)=O)NC(=O)[C@H](Cc2c[nH]c3ccccc23)NC(=O)[C@H](CO)NC1=O` [Peptide L5-2] ({CH2CO}-YISWNEFNSPNWRFITCG-NH2; thioether N-17), for which, at c-Met-Fc (Table 10, c-Met-Fc), the affinity, expressed as Kd, was 5.4 nM and the kon amounted to 2.3e+06 M⁻¹ s⁻¹. For the same compound, the “Stability in human serum (undegraded portion/time)” value in data set [1] (2 h) is listed as 71%/2 h.

For `CC(C)C[C@@H]1NC(=O)[C@H](CC(N)=O)NC(=O)[C@H](Cc2c[nH]c3ccccc23)NC(=O)[C@H](C(C)C)NC(=O)[C@H](CCC(=O)O)NC(=O)[C@H](Cc2c[nH]cn2)NC(=O)[C@H]([C@@H](C)O)NC(=O)[C@H](CCCNC(=N)N)NC(=O)[C@H](CCCNC(=N)N)NC(=O)[C@H](CC(N)=O)NC(=O)[C@H](Cc2ccccc2)NC(=O)[C@H](CCC(N)=O)NC(=O)[C@H](CCCNC(=N)N)N(C)C(=O)[C@@H](Cc2ccc(O)cc2)NC(=O)CSC[C@@H](C(=O)NCC(N)=O)NC(=O)[C@H](CC(=O)O)NC1=O` [Peptide N2] ({CH2CO}-[dY][NMeR]QFNRRTHEVWNLDCG-NH2; thioether N-16; C-terminus assumed), at c-Met-Fc (Table 8, c-Met-Fc), the kd is 1.0 10^−2 s^−1 and the kon amounted to 710000 M⁻¹ s⁻¹. Also, in data set [1], the amount remaining at 1 h, 1 μM was determined as 5.4%.

As for `CC(C)C[C@@H]1NC(=O)[C@H](CC(N)=O)NC(=O)[C@H](Cc2c[nH]c3ccccc23)NC(=O)[C@H](C(C)C)NC(=O)[C@H](CCC(=O)O)NC(=O)[C@H](Cc2c[nH]cn2)NC(=O)[C@H]([C@@H](C)O)NC(=O)[C@H](CCCNC(=N)N)NC(=O)[C@H](CCCNC(=N)N)NC(=O)[C@H](CC(N)=O)NC(=O)[C@H](Cc2ccccc2)N(C)C(=O)[C@H](CCC(N)=O)NC(=O)[C@H](CCCNC(=N)N)NC(=O)[C@@H](Cc2ccc(O)cc2)NC(=O)CSC[C@@H](C(=O)NCC(N)=O)NC(=O)[C@H](CC(=O)O)NC1=O` [Peptide N4] ({CH2CO}-[dY]RQ[NMeF]NRRTHEVWNLDCG-NH2; thioether N-16; C-terminus assumed), at c-Met-Fc (Table 8, c-Met-Fc), the kd is 0.96 10^−2 s^−1 and the kon was found to be 120000 M⁻¹ s⁻¹. Also, the share remaining at 1 h, 1 μM in data set [1] worked out at 21.1%.

Turning to `CC(C)C[C@@H]1NC(=O)[C@H](CC(N)=O)NC(=O)[C@H](Cc2c[nH]c3ccccc23)NC(=O)[C@H](C(C)C)NC(=O)[C@H](CCC(=O)O)NC(=O)[C@H](Cc2c[nH]cn2)NC(=O)[C@H]([C@@H](C)O)NC(=O)[C@H](CCCNC(=N)N)NC(=O)[C@H](CCCNC(=N)N)N(C)C(=O)[C@H](CC(N)=O)NC(=O)[C@H](Cc2ccccc2)NC(=O)[C@H](CCC(N)=O)NC(=O)[C@H](CCCNC(=N)N)NC(=O)[C@@H](Cc2ccc(O)cc2)NC(=O)CSC[C@@H](C(=O)NCC(N)=O)NC(=O)[C@H](CC(=O)O)NC1=O` [Peptide N6] ({CH2CO}-[dY]RQFN[NMeR]RTHEVWNLDCG-NH2; thioether N-16; C-terminus assumed), on c-Met-Fc, the “Binding ability (in words)” value is on record as “do not show marked deterioration”. For the same compound, on c-Met-Fc (Table 8, c-Met-Fc), the kd was 0.41 10^−2 s^−1 and the kon came to 120000 M⁻¹ s⁻¹. In addition, at c-Met-Fc (Table 9, c-Met-Fc), the ka is 1.2 10^5 M^−1s^−1 and the kd is 0.41 10^−2s^−1. Moreover, in data set [1], the fraction remaining at 1 h, 1 μM turned out to be 85% and the “Stability in serum (in words)” value is “drastically improved”. For the same compound, the amount remaining at 4 h, 1 μM in data set [1] (4 h) amounted to 67%.

Consider `CC(C)C[C@@H]1NC(=O)[C@H](CC(N)=O)NC(=O)[C@H](Cc2c[nH]c3ccccc23)NC(=O)[C@H](C(C)C)NC(=O)[C@H](CCC(=O)O)NC(=O)[C@H](Cc2c[nH]cn2)NC(=O)[C@H]([C@@H](C)O)NC(=O)[C@H](CCCNC(=N)N)N(C)C(=O)[C@H](CCCNC(=N)N)NC(=O)[C@H](CC(N)=O)NC(=O)[C@H](Cc2ccccc2)NC(=O)[C@H](CCC(N)=O)NC(=O)[C@H](CCCNC(=N)N)NC(=O)[C@@H](Cc2ccc(O)cc2)NC(=O)CSC[C@@H](C(=O)NCC(N)=O)NC(=O)[C@H](CC(=O)O)NC1=O` [Peptide N7] ({CH2CO}-[dY]RQFNR[NMeR]THEVWNLDCG-NH2; thioether N-16; C-terminus assumed), for which, on c-Met-Fc, the “Binding ability (in words)” value is recorded as “do not show marked deterioration”. Further, on c-Met-Fc (Table 8, c-Met-Fc), the kd is listed as 6.9 10^−2 s^−1 and the kon was determined as 53000 M⁻¹ s⁻¹. In addition, in data set [1], the amount remaining at 1 h, 1 μM came out at 92% and the “Stability in serum (in words)” value is “drastically improved”.

For `CC(C)C[C@@H]1NC(=O)[C@H](CC(N)=O)NC(=O)[C@H](Cc2c[nH]c3ccccc23)NC(=O)[C@H](C(C)C)NC(=O)[C@H](CCC(=O)O)NC(=O)[C@H](Cc2c[nH]cn2)NC(=O)[C@H]([C@@H](C)O)N(C)C(=O)[C@H](CCCNC(=N)N)NC(=O)[C@H](CCCNC(=N)N)NC(=O)[C@H](CC(N)=O)NC(=O)[C@H](Cc2ccccc2)NC(=O)[C@H](CCC(N)=O)NC(=O)[C@H](CCCNC(=N)N)NC(=O)[C@@H](Cc2ccc(O)cc2)NC(=O)CSC[C@@H](C(=O)NCC(N)=O)NC(=O)[C@H](CC(=O)O)NC1=O` [Peptide N8] ({CH2CO}-[dY]RQFNRR[NMeT]HEVWNLDCG-NH2; thioether N-16; C-terminus assumed), the kon on c-Met-Fc (Table 8, c-Met-Fc) came out at 27000 M⁻¹ s⁻¹. Besides, in data set [1], the share remaining at 1 h, 1 μM was found to be 81% and the “Stability in serum (in words)” value is on record as “drastically improved”.

Regarding `CC(C)C[C@@H]1NC(=O)[C@H](CC(N)=O)N(C)C(=O)[C@H](Cc2c[nH]c3ccccc23)NC(=O)[C@H](C(C)C)NC(=O)[C@H](CCC(=O)O)NC(=O)[C@H](Cc2c[nH]cn2)NC(=O)[C@H]([C@@H](C)O)NC(=O)[C@H](CCCNC(=N)N)NC(=O)[C@H](CCCNC(=N)N)NC(=O)[C@H](CC(N)=O)NC(=O)[C@H](Cc2ccccc2)NC(=O)[C@H](CCC(N)=O)NC(=O)[C@H](CCCNC(=N)N)NC(=O)[C@@H](Cc2ccc(O)cc2)NC(=O)CSC[C@@H](C(=O)NCC(N)=O)NC(=O)[C@H](CC(=O)O)NC1=O` [Peptide N13] ({CH2CO}-[dY]RQFNRRTHEVW[NMeN]LDCG-NH2; thioether N-16; C-terminus assumed), the kon on c-Met-Fc (Table 8, c-Met-Fc) worked out at 78000 M⁻¹ s⁻¹. The compound further registered a share remaining at 1 h, 1 μM in data set [1] of 4.5%.

Usually Kd stands for the equilibrium constant for the complex coming apart. Read a low Kd as a tighter complex. The term amount remaining denotes the share of the starting amount still present when the sample was taken.
